# In ChEMBL document CHEMBL1201862, “PubChem BioAssay data set” (2004):
# Several values for one entry are separate records, joined by “and”; a condition that tells them apart may be missing. Equal entries are not always repeated.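 48-hour exposure; five concentrations; linearly interpolated endpoints. GI50 = concentration required for 50% inhibition of growth.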 Activity calls are given as the source filed them. Cut-off read from the data, not from the text of the source: active = GI50 up to about 1.1 µM and inactive = higher.
# What was measured:
# Experiment in all cases: growth of human tumour cells (NCI), 48 h
# DMS-273 = system: DMS-273
# DMS-114 = system: DMS-114
# LXFL 529 = system: LXFL 529
# HOP-18 = system: HOP-18
# SNB-78 = system: SNB-78
# MDA-MB-435 = system: MDA-MB-435
# MDA-N = system: MDA-N
# DU-145 = system: DU-145
SMILES,GI50 (DMS-273),GI50 (DMS-114),GI50 (LXFL 529),GI50 (HOP-18),GI50 (SNB-78),GI50 (MDA-MB-435),GI50 (MDA-N),GI50 (DU-145)
CC[P+](C)(Cc1ccccc1)c1ccccc1 (stereo unspecified),> 100 µM (inactive),87.7 µM (inactive),74.6 µM (inactive),> 100 µM (inactive),> 100 µM (inactive),–,–,–
CCCNC(=O)C1C(=O)C(=O)N(CCC)C1=O (stereo unspecified),> 100 µM (inactive),> 100 µM (inactive),> 100 µM (inactive),> 100 µM (inactive),> 100 µM (inactive),–,–,–
Cn1c(=O)c2c(nc(C[N+]3([O-])CCOCC3)n2C)n(C)c1=O,> 100 µM (inactive),0.45 µM (active),> 100 µM (inactive),–,–,–,–,–
O=C1Cc2ccccc2N1/N=C\c1ccc([N+](=O)[O-])cc1,> 100 µM (inactive),> 100 µM (inactive),–,> 100 µM (inactive),> 100 µM (inactive),–,–,–
O=C(CC/C(CC(=O)c1ccc(Cl)cc1)=N\O)Nc1cccc(Cl)c1,> 100 µM (inactive),> 100 µM (inactive),> 100 µM (inactive),–,> 100 µM (inactive),–,–,–
NC(=O)c1cn(Cc2ccccc2)c(=O)n1Cc1ccccc1,> 100 µM (inactive),–,> 100 µM (inactive),> 100 µM (inactive),> 100 µM (inactive),–,–,–
COc1cc2ccc(C(=O)O)cc2cc1OC,> 100 µM (inactive),–,> 100 µM (inactive),> 100 µM (inactive),> 100 µM (inactive),–,–,–
CCC1=C(CC)C1(C#N)[N+](=O)[O-],> 100 µM (inactive),> 100 µM (inactive),> 100 µM (inactive),–,> 100 µM (inactive),–,–,–
CC(=O)O[C@]12CCCCCC1C1(O)C(O)CCCCC12 (stereo partly specified),> 100 µM (inactive),> 100 µM (inactive),> 100 µM (inactive),–,> 100 µM (inactive),–,–,–
O=c1c(O)c(-c2ccc(O)c(O)c2)oc2cc(O)ccc12 [FISETIN],11.5 µM (inactive),15.2 µM (inactive),15 µM (inactive),21.2 µM (inactive),20.1 µM (inactive),–,–,–
CC1CC/C(=C\c2ccc(F)cc2)C2=C1C(c1ccc(F)cc1)NC(=S)N2 (stereo unspecified),–,–,–,–,–,57.7 µM (inactive),67.8 µM (inactive),46.8 µM (inactive)
CCCCOC(=O)/C(CC(=O)C=C(C)C)=N\NS(=O)(=O)c1ccc(C)cc1,–,21.1 µM (inactive),> 100 µM (inactive),> 100 µM (inactive),> 100 µM (inactive),–,–,–
Cc1cc(C)c2c(c1)CN1CN2Cc2cc(C)cc(C)c21,18.9 µM (inactive),–,32.7 µM (inactive),36.4 µM (inactive),17.5 µM (inactive),–,–,–
Cc1nn(C(=O)c2ccncc2)c2c1C(c1ccccc1O)SC(=N)N2 (stereo unspecified),–,–,–,–,–,> 10 µM (inactive),> 10 µM (inactive),> 10 µM (inactive)
O=C1/C(=C/c2ccco2)NC(=S)N1CN1CCCCC1,–,–,–,–,–,> 100 µM (inactive),> 100 µM (inactive),> 100 µM (inactive)
CC(=O)c1cccc(C)c1C(=O)O,> 100 µM (inactive),> 100 µM (inactive),> 100 µM (inactive),> 100 µM (inactive),95.5 µM (inactive),–,–,–
O=C(CCC(=O)Nc1cccc(Cl)c1)CC(=O)c1ccc(F)cc1,> 100 µM (inactive),–,–,–,> 100 µM (inactive),–,–,–
C#CCOC(=O)C(N)CS (stereo unspecified),–,–,–,–,–,> 100 µM (inactive),> 100 µM (inactive),> 100 µM (inactive)
CCSC1=N/C(=C/c2ccccc2O)C(=O)N1,–,–,–,–,–,> 100 µM (inactive),> 100 µM (inactive),> 100 µM (inactive)
O=[N+]([O-])C(=C(NCc1ccccc1)NCc1ccccc1)C(Cl)=C(Cl)Cl,–,–,–,–,–,22.9 µM (inactive),25.2 µM (inactive),69.3 µM (inactive)

SMILES,GI50 (DMS-273),GI50 (DMS-114),GI50 (LXFL 529),GI50 (HOP-18),GI50 (SNB-78),GI50 (MDA-MB-435),GI50 (MDA-N),GI50 (DU-145)
C[C@@H]1C[C@H](O)[C@]2(O)O[C@@H]3C[C@@]4(C=O)[C@@H](CC[C@@H]5[C@@H]4CC[C@]4(C)[C@@H](C6=CC(=O)OC6)CC[C@]54O)C[C@H]3O[C@@H]2O1 [CALOTROPIN],–,–,–,–,–,0.0675 µM (active),0.0692 µM (active),0.0134 µM (active)
Cn1c(=S)c2nc(SCCCc3ccccc3)[nH]c2n(C)c1=O,–,–,–,–,–,23.2 µM (inactive),21.8 µM (inactive),36.1 µM (inactive)
O=C(OCc1ccccc1)c1ccccc1-c1c2ccc(=O)cc-2oc2cc(OCc3ccccc3)ccc12,7.03 µM (inactive),–,4.88 µM (inactive),–,22.6 µM (inactive),–,–,–
CCOc1ccc2nc3cc(/N=N/c4ccc(N)nc4N)ccc3c(N)c2c1,–,–,–,–,–,3.03 µM (inactive),2.24 µM (inactive),6.65 µM (inactive)
CCOP(=O)(OCC)OC1c2[nH]ccc2-c2cc(C(=O)OC)[nH]c2C1OC (stereo unspecified),–,–,–,–,–,77.4 µM (inactive),> 100 µM (inactive),> 100 µM (inactive)
COC(=O)C(=O)C(C(=O)C(=O)Nc1cccc(OC)c1)c1nc2ccc(Cl)cc2nc1O (stereo unspecified),–,–,–,–,–,83.6 µM (inactive),> 100 µM (inactive),> 100 µM (inactive)
Oc1cccc(C2SCc3nc4ccccc4n32)c1 (stereo unspecified),47.1 µM (inactive),31 µM (inactive),40.6 µM (inactive),0.42 µM (active),> 100 µM (inactive),–,–,–
NC(=O)c1ccc[n+](C2=C([N-]S(=O)(=O)c3ccccc3)C(=O)c3ccccc3C2=O)c1,–,–,–,–,–,4.89 µM (inactive),16.7 µM (inactive),19.1 µM (inactive)
COc1ccc(/C=N/N=C(\N)NO)c(OC)c1OC,–,–,–,–,–,57.7 µM (inactive),66.5 µM (inactive),12.8 µM (inactive)
COc1ccc(S(=O)(=O)NNS(C)(=O)=O)cc1OC,> 100 µM (inactive),–,> 100 µM (inactive),–,–,–,–,–
CN(C)Cc1cc(C(=O)/C=C/c2ccc(Cl)cc2Cl)cc(CN(C)C)c1O,–,–,–,–,–,4.06 µM (inactive),1.88 µM (inactive),4.73 µM (inactive)
OCc1cc2c([nH]c3ccccc32)c(C(O)CO)n1 (stereo unspecified),–,–,–,–,–,> 100 µM (inactive),> 100 µM (inactive),> 100 µM (inactive)
CN(C)CCCCN1CCc2c(n(C)c3ccccc23)C1=O,> 66.7 µM (inactive),> 80.7 µM (inactive),19.4 µM (inactive),> 100 µM (inactive),> 100 µM (inactive),17.5 µM (inactive),13.4 µM (inactive),> 84.5 µM (inactive)
[N-]=[N+]=C1C(=O)C2CC3CC(C2)CC1C3,> 100 µM (inactive),> 100 µM (inactive),> 100 µM (inactive),> 100 µM (inactive),> 100 µM (inactive),–,–,–
Cc1nc2cc(/N=N/c3c(O)ccc4ccccc34)ccc2[nH]1,19.4 µM (inactive),25.8 µM (inactive),19.9 µM (inactive),–,83 µM (inactive),23.1 µM (inactive),17 µM (inactive),36 µM (inactive)
C=C1C(=O)O[C@@H]2/C=C(/C)[C@@H](OC(C)=O)C[C@@H](O)/C(C)=C\[C@@H](OC(=O)[C@]3(C)O[C@@H]3C)[C@@H]12,–,–,–,–,–,15.3 µM (inactive),15.7 µM (inactive),14.6 µM (inactive)
CC(=O)OC12CC[N+]3(C)CCCCC3C1=Nc1ccccc12 (stereo unspecified),–,–,–,–,–,> 100 µM (inactive),> 100 µM (inactive),> 100 µM (inactive)
O=C(O)c1ccc(Nc2nc3nn(Cc4ccccc4)cc3c(=O)s2)cc1,> 100 µM (inactive),> 100 µM (inactive),> 100 µM (inactive),74.8 µM (inactive),> 100 µM (inactive),–,–,–
COC(=O)[C@@H]1CC(C(C[N+](=O)[O-])c2ccc(O[Si](C)(C)C(C)(C)C)cc2)C(=O)N1C(=O)OC(C)(C)C (stereo partly specified),–,–,–,–,–,> 100 µM (inactive) and 73.5 µM (inactive),> 100 µM (inactive),> 100 µM (inactive)
